{
  "source": "paper PMC7179274",
  "about": "“6′-β-Fluoro-Homoaristeromycin and 6′-Fluoro-Homoneplanocin A Are Potent Inhibitors of Chikungunya Virus Replication through Their Direct Effect on Viral Nonstructural Protein 1” (Antimicrobial Agents and Chemotherapy, 2020)",
  "target": "T1, wt SFV nsP1 (Semliki forest virus, UniProt P08411)",
  "T1 sequence (P08411 1-537)": "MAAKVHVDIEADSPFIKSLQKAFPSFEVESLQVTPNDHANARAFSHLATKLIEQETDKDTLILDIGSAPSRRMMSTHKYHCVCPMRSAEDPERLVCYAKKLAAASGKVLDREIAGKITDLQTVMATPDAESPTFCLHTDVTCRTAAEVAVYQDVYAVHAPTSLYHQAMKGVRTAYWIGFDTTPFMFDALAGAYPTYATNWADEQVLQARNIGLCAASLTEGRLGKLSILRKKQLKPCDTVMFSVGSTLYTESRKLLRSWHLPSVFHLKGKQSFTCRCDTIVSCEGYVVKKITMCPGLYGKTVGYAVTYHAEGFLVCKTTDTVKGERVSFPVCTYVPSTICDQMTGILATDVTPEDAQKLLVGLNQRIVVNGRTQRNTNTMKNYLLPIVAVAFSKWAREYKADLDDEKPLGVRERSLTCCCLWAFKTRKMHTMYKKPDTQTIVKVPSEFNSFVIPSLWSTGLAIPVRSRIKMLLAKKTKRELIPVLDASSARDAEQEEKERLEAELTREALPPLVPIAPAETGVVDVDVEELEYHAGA",
  "assay": "nsP1 enzymatic activity assay (m7GMP-nsP1 intermediate formation), wt",
  "settings": "for Inhibition of wt SFV nsP1: 10 μM SAM",
  "data": [
    {"compound": "Nc1ncnc2c1ncn2C1C(F)=C(CCO)C(O)C1O", "note": "(stereo not shown) [FHNA, 6′-fluoro-homoneplanocin A]", "values": [
      {"measurement": "Effect on formation of m7GMP-nsP1 intermediate", "setting": "50 μM to 1 mM, 100 μM SAM, 5 mM DTT", "value": "did not observe any inhibitory effect"},
      {"measurement": "Inhibition of wt SFV nsP1", "setting": "1 mM compound + 1 mM NAD+, absence of DTT", "value": "more than 50%"},
      {"measurement": "Effect on formation of m7GMP-nsP1 intermediate at low SAM", "setting": "1 mM compound, 5 or 10 μM SAM", "value": "no direct inhibitory effect"},
      {"measurement": "Inhibition of wt SFV nsP1", "setting": "1 mM, nonreducing conditions (absence of DTT)", "value": "more than 40%"}
    ]}
  ]
}
